Among the data in ChEMBL document CHEMBL1201862, “PubChem BioAssay data set” (2004) are IC50, CC50 and EC50 values, retold here.

The nature of assay [1]: Counterscreen for IDE inhibitors: Luminescence-based cell-based high throughput dose response assay to identify compounds that are cytotoxic to HEK cells. [Related pubchem assays: 434962 (Primary screen (IDE inhibitors in singlicate)), 449730 (Counterscreen (Cytotoxicity in triplicate)), 435028 (Confirmation (IDE inhibitors in triplicate)) …. It is filed as functional. To be noted: HEK293.

The target of assay [2] is T1, Insulin-degrading enzyme (Homo sapiens, UniProt P14735).
T1 sequence (P14735 whole entry): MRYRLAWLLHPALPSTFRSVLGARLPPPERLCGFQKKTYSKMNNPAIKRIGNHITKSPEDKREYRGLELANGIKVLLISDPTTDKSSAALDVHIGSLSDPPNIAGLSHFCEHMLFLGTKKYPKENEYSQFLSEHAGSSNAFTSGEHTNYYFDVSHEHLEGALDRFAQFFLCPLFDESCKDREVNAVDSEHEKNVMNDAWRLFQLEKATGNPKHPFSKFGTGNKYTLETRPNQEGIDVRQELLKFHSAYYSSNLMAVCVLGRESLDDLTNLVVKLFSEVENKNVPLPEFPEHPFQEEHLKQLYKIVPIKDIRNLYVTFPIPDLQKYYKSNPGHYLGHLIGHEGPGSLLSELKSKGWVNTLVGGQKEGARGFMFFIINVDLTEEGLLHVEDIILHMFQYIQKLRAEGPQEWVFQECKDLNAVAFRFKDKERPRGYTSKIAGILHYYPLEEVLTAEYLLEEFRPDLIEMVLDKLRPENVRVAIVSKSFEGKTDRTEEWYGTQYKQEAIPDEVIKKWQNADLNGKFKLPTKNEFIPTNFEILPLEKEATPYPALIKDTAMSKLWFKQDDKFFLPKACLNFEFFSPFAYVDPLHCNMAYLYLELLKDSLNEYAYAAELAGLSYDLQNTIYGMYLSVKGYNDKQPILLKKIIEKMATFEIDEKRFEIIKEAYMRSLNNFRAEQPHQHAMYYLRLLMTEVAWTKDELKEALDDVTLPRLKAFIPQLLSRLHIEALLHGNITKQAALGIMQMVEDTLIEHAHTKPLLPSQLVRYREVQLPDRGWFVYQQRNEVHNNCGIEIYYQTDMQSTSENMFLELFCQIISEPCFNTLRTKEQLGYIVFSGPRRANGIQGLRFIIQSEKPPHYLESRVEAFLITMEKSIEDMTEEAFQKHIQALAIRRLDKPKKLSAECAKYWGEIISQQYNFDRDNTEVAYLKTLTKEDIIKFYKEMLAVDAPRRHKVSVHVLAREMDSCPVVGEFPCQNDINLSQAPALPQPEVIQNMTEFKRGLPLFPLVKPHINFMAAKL
As to the kind of experiment: Dose Response: Fluorescence polarization-based cell-based high throughput dose response assay for inhibitors of insulin-degrading enzyme (IDE). [Related pubchem assays: 434962 (Primary screen (IDE inhibitors in singlicate)), 449730 (Counterscreen (Cytotoxicity in triplicate)), 435028 (Confirmation (IDE inhibitors in triplicate)), 434984 (Summary …. The assay is classed as functional.

Assay [3] in a line: viability of uninfected HEp-2 cells – cell-based, HTS, cytotoxicity control for RSV inhibitor project, dose response (AID 2410). The assay is classed as functional. The following applies: human respiratory syncytial virus.
For assay [4], the target named is Neuropeptides B/W receptor type 1 (Homo sapiens, UniProt P48145). As to the kind of experiment: Fluorescence-based dose response cell-based high throughput screening assay to identify antagonists of the G-protein coupled receptor 7 (GPR7). [Related pubchem assays: 1952 (Screening assay (GPR7 antagonists).), 1880 (Summary AID.)]. It is filed as functional.
Sequence of Neuropeptides B/W receptor type 1 (P48145 whole entry): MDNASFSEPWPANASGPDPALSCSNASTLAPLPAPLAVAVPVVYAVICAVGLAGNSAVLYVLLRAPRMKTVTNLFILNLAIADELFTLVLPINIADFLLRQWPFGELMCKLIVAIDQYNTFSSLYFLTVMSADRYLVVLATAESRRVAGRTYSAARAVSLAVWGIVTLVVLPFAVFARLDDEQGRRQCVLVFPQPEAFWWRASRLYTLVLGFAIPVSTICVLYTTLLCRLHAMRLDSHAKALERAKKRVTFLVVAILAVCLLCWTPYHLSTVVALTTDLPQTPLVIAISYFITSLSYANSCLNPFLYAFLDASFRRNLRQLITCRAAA
Assay [5] addresses Melanin-concentrating hormone receptor 1 (Homo sapiens, UniProt Q99705). The assay can be described thus: Fluorescence-based counterscreen for antagonists of the G-protein coupled receptor 7 (GPR7): cell-based high throughput dose response assay to identify antagonists of the melanin-concentrating hormone receptor 1 (MCHR1). The assay is classed as functional.
In assay [6] the test system is Streptococcus sp. 'group A'. The assay can be described thus: Streptococcus pyogenes SK(-)GAS viability under kanamycin – luminescence, BacTiterGlo, confirmation, counter-screen for streptokinase expression inhibitor project, dose response (AID 1900). It is filed as functional, organism-based.
The subject of assay [7] is Streptococcus. The assay can be described thus: Luminescence Microorganism-Based Dose Response Follow up to Identify Compounds Cytotoxic to Streptococcus. [Related pubchem assays: 1677 (Project Summary), 1915, 1914, 1902 (Retest at Dose), 1900 (Counter Screen), 1662 (Primary HTS)]. The assay is classed as functional, organism-based.
The target in assay [8] is T2, Streptokinase A (Streptococcus pyogenes serotype M1, UniProt P10520).
T2 sequence (P10520 whole entry): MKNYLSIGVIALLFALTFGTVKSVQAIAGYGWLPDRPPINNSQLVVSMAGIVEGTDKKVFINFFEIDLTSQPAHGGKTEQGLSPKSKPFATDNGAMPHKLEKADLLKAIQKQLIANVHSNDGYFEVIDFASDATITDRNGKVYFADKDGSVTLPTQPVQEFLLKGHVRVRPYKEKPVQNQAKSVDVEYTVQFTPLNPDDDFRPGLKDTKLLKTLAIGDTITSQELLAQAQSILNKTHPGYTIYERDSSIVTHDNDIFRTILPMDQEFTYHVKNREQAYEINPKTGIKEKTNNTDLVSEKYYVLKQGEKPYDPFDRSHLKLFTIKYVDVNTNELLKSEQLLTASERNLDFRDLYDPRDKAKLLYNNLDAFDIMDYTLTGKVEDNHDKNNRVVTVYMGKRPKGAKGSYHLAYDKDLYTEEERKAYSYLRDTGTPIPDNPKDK
The assay can be described thus: viability-normalized secreted streptokinase activity reduction – plasminogen activation absorbance, OD405, dose response (AID 1914).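 Also: secreted streptokinase activity via plasminogen activation per viability signal from cell pellet.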 It is filed as functional, Streptococcus pyogenes M1 GAS.

The test system of assay [9] is Streptococcus. The assay can be described thus: GAS UMAA2166 growth inhibition – luminescence, BacTiterGlo, counter-screen for streptokinase expression inhibitor project, dose response (AID 1915).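 Also: potency for reduction of bacterial viability or growth.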 The assay is classed as functional, organism-based.

Active and inactive are the calls of the source.

Sequence of Melanin-concentrating hormone receptor 1 (Q99705 whole entry): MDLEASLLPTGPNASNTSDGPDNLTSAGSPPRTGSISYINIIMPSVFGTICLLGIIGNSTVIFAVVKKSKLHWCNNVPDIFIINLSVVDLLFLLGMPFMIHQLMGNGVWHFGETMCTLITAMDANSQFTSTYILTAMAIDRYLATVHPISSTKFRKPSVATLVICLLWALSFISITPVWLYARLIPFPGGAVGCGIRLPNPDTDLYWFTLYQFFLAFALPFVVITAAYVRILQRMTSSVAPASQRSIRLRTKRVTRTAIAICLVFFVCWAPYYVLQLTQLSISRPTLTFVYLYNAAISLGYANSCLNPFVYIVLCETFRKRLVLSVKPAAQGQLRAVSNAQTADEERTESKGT

In the case of `COc1cc(/C=C2\SC(=N)N(c3ccc(F)cc3)C2=O)ccc1O`, the IC50 in assay [1] is 39.5 µM (not active); in assay [2] it was 29.3 µM (not active).
With `Cc1cc(C[n+]2cc(Br)ccc2N)c2ncccc2c1`, the CC50 in [3] was 46.4 µM (active). The half-inhibitory concentration (IC50) in assay [4] is > 43.8 µM (not active); in assay [5], 26.2 µM (not active).
For the molecule `FC(F)(F)c1nc(N2CCN(c3ccccc3)CC2)nc2c1CCCCC2`, the EC50 in [6] is 2.83 µM (active); in assay [7] it was > 500 µM (not active); in [8] it was 5.5 µM (active); in [9], > 150 µM (not active).
